Drawing on ChEMBL document CHEMBL1137598, “Synthesis and structure-activity relationship of N-acyl-Gly-, N-acyl-Sar- and N-blocked-boroPro inhibitors of FAP, DPP4, and POP” (Bioorg Med Chem Lett, 2007), this text covers Ki and inhibition for 3 molecules.

One may read the pKi as −log10 of the Ki, conventionally taken in molar units. A high value points to a small Ki. What is called inhibition is the change of the read-out against control, counted positive when it falls. Low readings indicate little suppression, high ones strong suppression.

One experiment has as its target T1, Prolyl endopeptidase (Homo sapiens, UniProt P48147).
T1 sequence (P48147 whole entry): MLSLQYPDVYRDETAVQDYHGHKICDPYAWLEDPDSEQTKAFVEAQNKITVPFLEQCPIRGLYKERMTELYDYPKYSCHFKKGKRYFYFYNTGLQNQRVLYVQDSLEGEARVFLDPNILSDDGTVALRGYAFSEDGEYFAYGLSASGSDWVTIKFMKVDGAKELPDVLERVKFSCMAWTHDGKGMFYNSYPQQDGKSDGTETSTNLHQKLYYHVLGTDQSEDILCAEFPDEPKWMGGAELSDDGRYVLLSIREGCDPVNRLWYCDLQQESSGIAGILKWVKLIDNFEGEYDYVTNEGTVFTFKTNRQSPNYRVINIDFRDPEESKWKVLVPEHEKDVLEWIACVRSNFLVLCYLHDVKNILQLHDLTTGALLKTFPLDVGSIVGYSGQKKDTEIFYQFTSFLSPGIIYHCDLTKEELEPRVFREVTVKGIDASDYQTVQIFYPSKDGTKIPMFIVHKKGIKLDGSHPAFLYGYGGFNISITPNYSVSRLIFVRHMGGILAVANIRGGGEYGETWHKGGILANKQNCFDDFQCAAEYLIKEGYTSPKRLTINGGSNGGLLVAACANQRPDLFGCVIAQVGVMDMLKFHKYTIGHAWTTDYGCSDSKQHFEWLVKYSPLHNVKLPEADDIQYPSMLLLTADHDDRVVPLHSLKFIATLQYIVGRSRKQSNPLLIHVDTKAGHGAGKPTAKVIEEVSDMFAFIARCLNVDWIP
The experiment is described as follows: Inhibitory constant against POP.

Experiment [1] deals with Dipeptidyl peptidase 4 (Homo sapiens) (UniProt P27487). Nature of the experiment: Inhibition of DPP-4 at 500uM.

pKi: −log10 of the molar value.

Dipeptidyl peptidase 4 (Homo sapiens), sequence (P27487 whole entry, looked up): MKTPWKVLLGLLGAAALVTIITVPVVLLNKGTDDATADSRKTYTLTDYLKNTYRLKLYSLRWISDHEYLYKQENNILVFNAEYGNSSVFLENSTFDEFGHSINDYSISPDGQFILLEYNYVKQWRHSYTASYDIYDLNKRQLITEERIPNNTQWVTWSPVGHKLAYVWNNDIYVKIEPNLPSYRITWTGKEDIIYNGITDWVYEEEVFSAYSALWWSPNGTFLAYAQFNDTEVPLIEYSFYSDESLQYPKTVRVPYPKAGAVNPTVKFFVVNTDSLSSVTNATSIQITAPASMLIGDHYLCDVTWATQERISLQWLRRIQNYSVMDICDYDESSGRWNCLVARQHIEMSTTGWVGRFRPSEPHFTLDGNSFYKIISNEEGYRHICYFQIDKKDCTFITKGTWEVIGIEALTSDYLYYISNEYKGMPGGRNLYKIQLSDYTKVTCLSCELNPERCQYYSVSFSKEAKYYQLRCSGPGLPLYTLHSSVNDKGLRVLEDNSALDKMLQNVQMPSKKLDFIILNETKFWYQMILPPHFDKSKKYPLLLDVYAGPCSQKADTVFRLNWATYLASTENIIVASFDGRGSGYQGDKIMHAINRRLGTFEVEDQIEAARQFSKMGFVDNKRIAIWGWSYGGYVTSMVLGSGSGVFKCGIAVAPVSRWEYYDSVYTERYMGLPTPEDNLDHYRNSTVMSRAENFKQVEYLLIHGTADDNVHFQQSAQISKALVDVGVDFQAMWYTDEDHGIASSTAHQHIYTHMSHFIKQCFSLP

In turn, `CS(=O)(=O)NCC(=O)N1CCC[C@H]1B(O)O` showed a pKi at Prolyl endopeptidase of 5.87. On the same count and under the same terms, the same measure for `CC(C)C(=O)N(C)CC(=O)N1CCC[C@H]1B(O)O`: 7.89. With `CC(=O)N[C@H](C)C(=O)N1CCC[C@H]1B(O)O`, in experiment [1], the inhibition stood at 17%.
